# Key:
# rat cardiac allografts [1] = assay: Rat cardiac allograft study, Allograft Study 3 (Table 21); assay type: in vivo; settings: for number of surviving grafts within each group / percent of surviving grafts within a group: s.c., GG5/3 3 mg/kg, compound 30 mg/kg
# Description: Cardiac allografts were established. […] A total of 20 allografts, amongst 4 groups, were evaluated in the study.
# rat cardiac allografts [2] = assay: Rat cardiac allograft study, Allograft Study 4 (Table 22);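 note: heterotopic abdominal heart transplants from Lewis × Brown Norway F1 donors into male Lewis rats, graft beating checked daily by flank palpation, rejection defined as complete stop of heartbeat, transplant day 0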; settings: 30 mg/kg s.c. every 12 h, day -2 to +10
# Description: Hearts from Lewis X Brown Norway F1 hybrids were transplanted to the abdominal great vessels of Lewis recipients using standard microvascular techniques. Both rat strains were male inbred rats, weighing 200-300 g. Food and water was available at all times except during surgical and dosing procedures. The day of transplantation was noted as day 0. Twelve hours following the last dose approximately 1 ml of blood was collected into lithium/heparin anti-coagulant tubes. If any graft was rejected prior to the last day of dosing, blood samples were taken 12 hours after dosing on the day that graft rejection was noted. All blood samples were centrifuged at 3000 rpm for 10 minutes and the plasma was harvested, frozen on dry ice and stored frozen at −20 C prior to analysis. Allograft survival in the rats was evaluated by daily palpation of the transplanted heart through the recipient's flank. Rejection was taken as the day of complete cessation of the graft's heart beat. Upon determination of rejection, the abdomen of the recipient was incised and retracted to confirm cessation of the heart beat in the transplanted heart. If cessation of the heart beat was not confirmed the abdomen was surgically closed, and the grafted heart was evaluated daily.
# Cardiac allografts were established. Dosing of compounds began on day −2, 2 days prior to transplantation and continued through day +10. […] The vehicle control, 0.9% saline, pH adjusted to a value of 5, to match the dosing solution containing the N-[N-(3-pyridinesulfonyl)-L-3,3-dimethyl-4-thiaprolyl]-0-[1-methylpiperazin-4-ylcarbonyl]-L-tyrosine isopropyl ester, was administered via the same route, i.e. every 12 hours, day −2 through day +10. The antibody, GG5/3 in 0.9% saline, was administered at 3 mg/kg, s.c., on day 0, +3, +7 and +10. All GG5/3 animals received twice daily s.c. injections of 0.9% saline, every 12 hours, from day −2 through day +10. The vehicle control, 0.9% saline, was administered daily, s.c., day 0 through day +10. All dosing solutions were formulated daily at a constant dose volume of 5 ml/kg. The site of injection was rotated at each injection through four possible sites: right and left fore flank, right and left rear flank. A total of 21 allografts, amongst 5 groups, were evaluated in the study. […] Two animals within the 0.9% saline group received saline adjusted to a pH a value of 5. (The pH value of the N-[N-(3-pyridinesulfonyl)-L-3,3-dimethyl-4-thiaprolyl]-0-[1-methylpiperazin-4-ylcarbonyl]-L-tyrosine isopropyl ester dosing solution.) The remaining two animals received saline of pH 7. Group 2 consisted of 6 animals treated with the monoclonal antibody, GG5/3. […] Twelve hours following the last dose approximately 1 ml of blood was collected into lithium/heparin anti-coagulant tubes. If any graft was rejected prior to the last day of dosing, blood samples were taken 12 hours after dosing on the day that graft rejection was noted. All samples were centrifuged at 3000 rpm for 10 minutes and the plasma was harvested, frozen on dry ice and stored frozen at −20 C prior to dispatch for analysis. Allograft survival in the rats was evaluated by daily palpation of the transplanted heart through the recipient's flank. Rejection was taken as the day of complete cessation of graft's heart beat. Upon determination of rejection, the abdomen of the recipient was incised to confirm cessation of the heart beat in the transplanted heart. If cessation of the heart beat was not confirmed the abdomen was surgically closed, and the graft was evaluated daily.
# [3] = tested on: Lewis X Brown Norway F1 hearts transplanted to Lewis recipients; assay: Rat cardiac allograft model, Allograft Study 1 (summary across three studies); assay type: in vivo; settings: for absolute cardiac allograft survival (last day of graft survival): vehicle day +9
# Description: Allograft rejection is defined as the expression of an immune reaction of the recipient, against foreign antigens of the transplanted tissue. This reaction is mediated by T lymphocytes. Cell adhesion events are of critical importance in the T-cell recognition of alloantigens, the trafficking of recipient immune and inflammatory cells into the graft, and the execution of cell-mediated effector functions. […] This beneficial therapeutic effect correlates with decreased infiltration by α4β1 positive cells, deposition of CS1-FN, and endothelial staining for VCAM-1, as determined by immunohistology/RNAse protection assay.
# To further evaluate the therapeutic potential of α4β1 targeted therapy in transplantation rejection, three studies were conducted in a well-defined rat cardiac transplant model. The following report summarizes the data across all three studies.
# rat cardiac allografts [4] = assay: Rat cardiac allograft study, Allograft Study 2 (Table 20); settings: for number of surviving grafts within each group: s.c., GG5/3 3 mg/kg, compounds 30 mg/kg;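 for all read-outs here: lewis x Brown Norway F1 hearts grafted abdominally into male Lewis rats, palpated daily, rejection meaning complete loss of heartbeat, day 0 being surgery day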
# Description: Hearts from Lewis X Brown Norway F1 hybrids were transplanted to the abdominal great vessels of Lewis recipients using standard microvascular techniques. Both rat strains were male inbred rats, weighing 200-300 g. Food and water was available at all times except during surgical and dosing procedures. The day of transplantation was noted as day 0. […] Allograft survival in the rats was evaluated by daily palpation of the transplanted heart through the recipient's flank. Rejection was taken as the day of complete cessation of the graft's heart beat. Upon determination of rejection, the abdomen of the recipient was incised and retracted to confirm cessation of the heart beat in the transplanted heart. If cessation of the heart beat was not confirmed the abdomen was surgically closed, and the grafted heart was evaluated daily.
# Cardiac allografts were established. Dosing of compounds began on day 0, prior to transplantation and continued through day +10. […] The vehicle control, 10% ethanol/corn oil, was administered s.c., every 12 hours, day 0 through day +10. The antibody, GG5/3 in 0.9% saline, was administered at 3 mg/kg, s.c., on day 0, +3, +7 and +10. All GG5/3 animals received twice daily s.c. injections of 0.9% saline, every 12 hours, throughout day 0 through day +10. The vehicle control, 0.9% saline, was administered daily, s.c., day 0 through day +10. All dosing solutions were formulated daily at a constant dose volume of 5 ml/kg. The site of injection was rotated at each injection through four possible sites: right and left fore flank, right and left rear flank. A total of 28 allografts, amongst 5 groups, were evaluated in the study. Group 1, consisted of 6 animals treated with the monoclonal antibody, GG5/3. […] Allograft survival was evaluated by daily palpation of the transplanted heart through the recipient's flank. Rejection was taken as the day of complete cessation of graft's heart beat. Upon determination of rejection, the abdomen of the recipient was incised to confirm cessation of the heart beat in the transplanted heart. If cessation of the graft's heart beat was not confirmed the abdomen was surgically closed, and the graft was evaluated daily.
# rat cardiac allografts [5] = assay: Rat cardiac allograft study, Allograft Study 5, dose response (Table 23); assay type: in vivo
smiles,measurement,setting,value
CC(C)OC(=O)[C@H](Cc1ccc(OC(=O)N(C)C)cc1)NC(=O)[C@H]1N(S(=O)(=O)c2cnn(C)c2)CSC1(C)C,number of surviving grafts within each group,rat cardiac allografts [1]; Day 0,6
same,percent of surviving grafts within a group,rat cardiac allografts [1]; Day 0,100%
same,number of surviving grafts within each group,rat cardiac allografts [1]; Day 1,6
same,percent of surviving grafts within a group,rat cardiac allografts [1]; Day 1,100%
same,number of surviving grafts within each group,rat cardiac allografts [1]; Day 2,6
same,percent of surviving grafts within a group,rat cardiac allografts [1]; Day 2,100%
same,number of surviving grafts within each group,rat cardiac allografts [1]; Day 3,6
same,percent of surviving grafts within a group,rat cardiac allografts [1]; Day 3,100%
same,number of surviving grafts within each group,rat cardiac allografts [1]; Day 4,6
same,percent of surviving grafts within a group,rat cardiac allografts [1]; Day 4,100%
same,number of surviving grafts within each group,rat cardiac allografts [1]; Day 5,6
same,percent of surviving grafts within a group,rat cardiac allografts [1]; Day 5,100%
same,number of surviving grafts within each group,rat cardiac allografts [1]; Day 6,6
same,percent of surviving grafts within a group,rat cardiac allografts [1]; Day 6,100%
same,number of surviving grafts within each group,rat cardiac allografts [1]; Day 7,6
same,percent of surviving grafts within a group,rat cardiac allografts [1]; Day 7,100%
same,number of surviving grafts within each group,rat cardiac allografts [1]; Day 8,6
same,percent of surviving grafts within a group,rat cardiac allografts [1]; Day 8,100%
same,number of surviving grafts within each group,rat cardiac allografts [1]; Day 9,4
same,percent of surviving grafts within a group,rat cardiac allografts [1]; Day 9,67%
same,number of surviving grafts within each group,rat cardiac allografts [1]; Day 10,4
same,percent of surviving grafts within a group,rat cardiac allografts [1]; Day 10,67%
same,number of surviving grafts within each group,rat cardiac allografts [1]; Day 11,3
same,percent of surviving grafts within a group,rat cardiac allografts [1]; Day 11,50%
same,number of surviving grafts within each group,rat cardiac allografts [1]; Day 12,3
same,percent of surviving grafts within a group,rat cardiac allografts [1]; Day 12,50%
same,number of surviving grafts within each group,rat cardiac allografts [1]; Day 13,1
same,percent of surviving grafts within a group,rat cardiac allografts [1]; Day 13,16%
same,number of surviving grafts within each group,rat cardiac allografts [1]; Day 14,1
same,percent of surviving grafts within a group,rat cardiac allografts [1]; Day 14,16%
same,number of surviving grafts within each group,rat cardiac allografts [1]; Day 15,1
same,percent of surviving grafts within a group,rat cardiac allografts [1]; Day 15,16%
same,number of surviving grafts within each group,rat cardiac allografts [1]; Day 16,1
same,percent of surviving grafts within a group,rat cardiac allografts [1]; Day 16,16%
same,number of surviving grafts within each group,rat cardiac allografts [1]; Day 17,0
same,percent of surviving grafts within a group,rat cardiac allografts [1]; Day 17,0%
same,number of surviving grafts within each group,rat cardiac allografts [1]; Day 18,0
same,percent of surviving grafts within a group,rat cardiac allografts [1]; Day 18,0%
same,number of surviving grafts within each group,rat cardiac allografts [1]; Day 19,0
same,percent of surviving grafts within a group,rat cardiac allografts [1]; Day 19,0%
same,graft acceptance out to day,"rat cardiac allografts [1]; compound 30 mg/kg s.c. every 12 h, day -2 to +10, GG5/3 3 mg/kg s.c. day 0, +3, +7, +10",16 days
same,allograft acceptance compared with GG5/3,rat cardiac allografts [2],significantly prolong allograft acceptance beyond the level obtain with GG5/3
same,graft survival rate on day +19,rat cardiac allografts [2],Fifty percent or greater
same,longest surviving graft (one graft),rat cardiac allografts [2],37 days
same,absolute cardiac allograft survival (last day of graft survival),[3],37 day
same,number of surviving grafts within each group,rat cardiac allografts [4]; Day 0,6
same,number of surviving grafts within each group,rat cardiac allografts [4]; Day 1,6
same,number of surviving grafts within each group,rat cardiac allografts [4]; Day 2,6
same,number of surviving grafts within each group,rat cardiac allografts [4]; Day 3,6
same,number of surviving grafts within each group,rat cardiac allografts [4]; Day 4,6
same,number of surviving grafts within each group,rat cardiac allografts [4]; Day 5,6
same,number of surviving grafts within each group,rat cardiac allografts [4]; Day 6,6
same,number of surviving grafts within each group,rat cardiac allografts [4]; Day 7,6
same,number of surviving grafts within each group,rat cardiac allografts [4]; Day 8,6
same,number of surviving grafts within each group,rat cardiac allografts [4]; Day 9,6
same,number of surviving grafts within each group,rat cardiac allografts [4]; Day 10,5
same,number of surviving grafts within each group,rat cardiac allografts [4]; Day 11,3
same,number of surviving grafts within each group,rat cardiac allografts [4]; Day 12,3
same,number of surviving grafts within each group,rat cardiac allografts [4]; Day 13,2
same,number of surviving grafts within each group,rat cardiac allografts [4]; Day 14,1
same,number of surviving grafts within each group,rat cardiac allografts [4]; Day 15,1
same,number of surviving grafts within each group,rat cardiac allografts [4]; Day 16,0
same,graft survival (in words),"rat cardiac allografts [4]; compounds 30 mg/kg s.c. every 12 h, GG5/3 3 mg/kg s.c. day 0, +3, +7, +10","significant graft survival, resembling the results obtained from the GG5/3 group"
CC(C)OC(=O)[C@H](Cc1ccc(OC(=O)N2CCN(C)CC2)cc1)NC(=O)[C@H]1N(S(=O)(=O)c2cccnc2)CSC1(C)C [Example 379],allograft acceptance compared with GG5/3,rat cardiac allografts [2],significantly prolong allograft acceptance beyond the level obtain with GG5/3
same,graft survival rate on day +19,rat cardiac allografts [2],Fifty percent or greater
same,longest surviving graft (one graft),rat cardiac allografts [2],41 days
same,graft survival rate on day +14,[3],66%
same,graft survival rate out to day +30,[3],33%
same,absolute cardiac allograft survival (last day of graft survival),[3],41 day
same,day rejection begins,rat cardiac allografts [5]; 3 mg/kg s.c. every 12 h,7 days
same,day rejection is completed,rat cardiac allografts [5]; 3 mg/kg s.c. every 12 h,≤ 10 days
same,protection against graft rejection,rat cardiac allografts [5]; 3 mg/kg s.c. every 12 h,did not provide any protection against graft rejection
same,day rejection begins,rat cardiac allografts [5]; 10 mg/kg s.c. every 12 h,8 days
same,graft survival rate,"rat cardiac allografts [5]; 10 mg/kg s.c. every 12 h, by day +22",20%
same,graft acceptance (in words),rat cardiac allografts [5]; 30 mg/kg s.c. every 12 h,prolonged graft acceptance
same,graft survival rate,"rat cardiac allografts [5]; 30 mg/kg s.c. every 12 h, day +22, study still in progress",83%
Cc1ccc(S(=O)(=O)N2CCC[C@H]2C(=O)N[C@@H](Cc2ccc(OC(=O)N3CCN(CCO)CC3)cc2)C(=O)OC(C)(C)C)cc1,melting point,,158 to 160 °C

# Reference: patent publication US20060004019A1, “Steroid sparing agents and methods of using same” (priority 2004, published 2006)
